Laboratory results published in patent US9701651B2, “Methods of treating an overweight or obese subject” (Zafgen, Inc., priority 2008, dated 2017).
“Also recorded” adds a separate entry of the source.

System: DIO mice
Experiment: Weight loss study in diet-induced obese mice (oral administration)
Format: in vivo, C57BL/6NTac mice
Settings: 1.0 mg/kg orally in 10% gelucire in deionised water, once a day for 7 days; mice on 60% fat diet; over the course of the 8 days; compared with vehicle group
Method: A weight loss study was conducted in obese mice. The mice in this study were not genetically obese, but prior to and during the study, obesity was induced by a high-fat diet. Twelve week-old C57BL/6NTac mice, maintained on a 60% fat diet prior to and during the study, were separated into seven groups, eight animals per group. Average body weight of the mice was approximately 47 g at the start of the study.
Each of […] groups was orally administered 1.0 mg/kg of a compound (fumagillin and compounds B. C, D, E, F and G), in 10% gelucire in deionised water. Compounds B-G are as follows:
Each of these six groups was administered a different compound. One group was orally administered fumagillin at 1.0 mg/kg (ZGN-201) in 10% gelucire in deionised water, and one group was administered ([…] in deionised water(vehicle). Mice received administrations once a day for 7 days.
(Data analyzed by ANCOVA with body weight on Day 1 as covariate followed by multiple tests against vehicle group: *p<0.05; **p<0.01, ***p<0.001.)

Compound	effect on body weight (weight loss)
CO[C@@H]1[C@H](OC(=O)/C=C/C=C/C=C/C=C/C(=O)O)CC[C@]2(CO2)[C@H]1[C@@]1(C)O[C@@H]1CC=C(C)C [fumagillin, reference compound]	lost the most weight
CO[C@@H]1[C@H](OC(=O)N[C@@H](C(=O)NCCC2CCCN2C)C(C)C)CC[C@]2(CO2)[C@H]1[C@@]1(C)O[C@@H]1CC=C(C)C (some centres unmarked) [D]	lost weight
CO[C@@H]1[C@H](OC(=O)NCCC2CCCN2C)CC[C@]2(CO2)[C@H]1[C@@]1(C)O[C@@H]1CC=C(C)C (some centres unmarked) [C]	lost weight; also recorded: losing the most weight of these four groups
CO[C@@H]1[C@H](OC(=O)N[C@@H](C(=O)NCCN2CCCC2)C(C)C)CC[C@]2(CO2)[C@H]1[C@@]1(C)O[C@@H]1CC=C(C)C [E]	lost weight
CO[C@@H]1[C@H](OC(=O)N[C@@H](C(N)=O)C(C)C)CC[C@]2(CO2)[C@H]1[C@@]1(C)O[C@@H]1CC=C(C)C [B]	lost weight
